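Values below derive from 48-hour exposures of cells grown in 96-well plates, with endpoints linearly interpolated between the two concentrations bracketing the appropriate inhibition level. GI50 = concentration required for 50% inhibition of growth.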 Calls of active or inactive are those of the source. No stated cut-off is given here; in the data, active = GI50 up to about 1.1 µM and inactive = higher.
Experiments:
Assay in all cases: NCI-60 cell line screen, 48 h
SF-539 = tested on: SF-539
HOP-62 = tested on: HOP-62
NCI-H23 = tested on: NCI-H23
SW-620 = tested on: SW-620
M14 = tested on: M14
SF-295 = tested on: SF-295
SNB-78 = tested on: SNB-78
CCRF-CEM = tested on: CCRF-CEM
TK-10 = tested on: TK-10
SF-268 = tested on: SF-268
NCI-H460 = tested on: NCI-H460
NCI-H226 = tested on: NCI-H226
OVCAR-8 = tested on: OVCAR-8
SK-MEL-28 = tested on: SK-MEL-28
HCC 2998 = tested on: HCC 2998
CAKI-1 = tested on: CAKI-1
A498 = tested on: A498
SR = tested on: SR

Measured: GI50

Brc1cc(C2OCCCO2)ccc1OCc1ccccc1
inactive: SF-539 64.3 µM | HOP-62 43.9 µM | NCI-H23 45.6 µM | SW-620 30.1 µM | M14 33.5 µM | SF-295 52.8 µM | SNB-78 34.8 µM | CCRF-CEM 41.2 µM | TK-10 40.7 µM | SF-268 76.4 µM | NCI-H460 50.9 µM | NCI-H226 73.1 µM | OVCAR-8 57.3 µM | SK-MEL-28 > 100 µM | HCC 2998 30.3 µM | CAKI-1 54 µM | A498 > 100 µM

O=C1C=CC2(CCCCCCC2=O)CC1 (stereo unspecified)
inactive: SF-539 > 100 µM | HOP-62 > 100 µM | SW-620 > 100 µM | M14 > 100 µM | SF-295 > 100 µM | SNB-78 > 100 µM | CCRF-CEM > 100 µM | TK-10 > 100 µM | SF-268 > 100 µM | SR > 100 µM | NCI-H460 > 100 µM | NCI-H226 42.6 µM | OVCAR-8 > 100 µM | SK-MEL-28 > 100 µM | HCC 2998 > 100 µM | CAKI-1 > 100 µM | A498 > 100 µM

CCCCCCCCC(=O)NCCCNCCCNC(=O)CCCCCCCC
inactive: SF-539 15.7 µM | HOP-62 13.8 µM | NCI-H23 15.7 µM | SW-620 2.54 µM | M14 2.07 µM | SF-295 5.65 µM | SNB-78 10.9 µM | CCRF-CEM 3.28 µM | TK-10 15.1 µM | SF-268 10.2 µM | SR 2.62 µM | NCI-H460 2.54 µM | NCI-H226 17.9 µM | OVCAR-8 14.9 µM | SK-MEL-28 12.3 µM | HCC 2998 2.84 µM | CAKI-1 13 µM | A498 16.9 µM

CN(C)c1ccc(/C=C(/C(=O)O)c2csc(-c3nc(/C(=C\c4ccc(N(C)C)cc4)C(=O)O)cs3)n2)cc1
inactive: SF-539 > 100 µM | HOP-62 > 100 µM | NCI-H23 > 100 µM | SW-620 > 100 µM | M14 > 100 µM | SF-295 > 100 µM | SNB-78 > 100 µM | CCRF-CEM 16.7 µM | TK-10 > 100 µM | SF-268 > 100 µM | NCI-H460 > 100 µM | NCI-H226 > 100 µM | OVCAR-8 > 100 µM | SK-MEL-28 > 100 µM | HCC 2998 > 100 µM | CAKI-1 > 100 µM | A498 > 100 µM

CCOC(=O)C(CCC(N)=O)(CCC(=O)OC)C(=O)OCC
inactive: SF-539 > 100 µM | HOP-62 > 100 µM | NCI-H23 > 100 µM | SW-620 > 100 µM | M14 > 100 µM | SF-295 > 100 µM | SNB-78 > 100 µM | TK-10 > 100 µM | SF-268 > 100 µM | SR > 100 µM | NCI-H460 > 100 µM | NCI-H226 > 100 µM | OVCAR-8 > 100 µM | SK-MEL-28 > 100 µM | HCC 2998 > 100 µM | CAKI-1 > 100 µM | A498 > 100 µM

COc1ccc(C(Cl)=C(c2ccc(OCCN(C)C)cc2)c2ccc(OCCN(C)C)cc2)cc1
inactive: SF-539 1.57 µM | HOP-62 3.14 µM | NCI-H23 1.73 µM | SW-620 1.35 µM | M14 1.5 µM | SF-295 1.74 µM | SNB-78 1.71 µM | CCRF-CEM 1.16 µM | TK-10 17.1 µM | SF-268 1.84 µM | SR 1.36 µM | NCI-H460 1.82 µM | NCI-H226 1.61 µM | OVCAR-8 1.87 µM | SK-MEL-28 1.63 µM | HCC 2998 2.26 µM | CAKI-1 4.6 µM

Cc1nc2nnnn2c2c1C(=O)Nc1ccccc1N2
inactive: SF-539 > 100 µM | HOP-62 71.9 µM | NCI-H23 > 100 µM | SW-620 > 100 µM | M14 > 100 µM | SF-295 > 100 µM | SNB-78 > 100 µM | CCRF-CEM > 100 µM | TK-10 > 100 µM | SF-268 > 100 µM | SR 18.7 µM | NCI-H460 28.4 µM | NCI-H226 > 100 µM | OVCAR-8 > 100 µM | SK-MEL-28 > 100 µM | HCC 2998 > 100 µM

COc1cccc(C(=O)N2CCc3ccccc32)c1OC
inactive: SF-539 > 100 µM | HOP-62 > 100 µM | NCI-H23 34.4 µM | SW-620 41.9 µM | M14 43.6 µM | SF-295 38.5 µM | SNB-78 > 100 µM | CCRF-CEM 42.2 µM | TK-10 57.8 µM | SR 29.4 µM | NCI-H460 81.8 µM | NCI-H226 90.6 µM | OVCAR-8 78.3 µM | SK-MEL-28 > 100 µM | HCC 2998 85.1 µM | CAKI-1 38.5 µM

O=C(Cc1nc2ccccc2s1)NC12CC3CC(CC(C3)C1)C2
inactive: SF-539 > 100 µM | HOP-62 > 100 µM | NCI-H23 > 100 µM | SW-620 > 100 µM | M14 > 100 µM | SF-295 > 100 µM | SNB-78 > 100 µM | CCRF-CEM > 100 µM | TK-10 > 100 µM | SF-268 > 100 µM | SR > 100 µM | NCI-H460 > 100 µM | NCI-H226 > 100 µM | OVCAR-8 > 100 µM | SK-MEL-28 > 100 µM | HCC 2998 > 100 µM | CAKI-1 > 100 µM | A498 > 100 µM

CCc1c(C)[nH]c2c1/C(=N/N=C1\CCCc3[nH]c(C)c(CC)c31)CCC2
inactive: SF-539 28.2 µM | HOP-62 > 100 µM | NCI-H23 18.5 µM | SW-620 28.5 µM | M14 20.7 µM | SF-295 20.1 µM | SNB-78 27.4 µM | CCRF-CEM 19.2 µM | TK-10 49.1 µM | SF-268 19.3 µM | NCI-H460 18 µM | NCI-H226 17.6 µM | OVCAR-8 25.8 µM | SK-MEL-28 16.7 µM | HCC 2998 > 100 µM | CAKI-1 29.4 µM | A498 25.6 µM

Cc1ccc(/N=C2\N=C(N3CC(C)OC(C)C3)c3ccccc32)cc1 (stereo unspecified)
inactive: SF-539 17.9 µM | HOP-62 37.9 µM | NCI-H23 28.5 µM | SW-620 33.9 µM | M14 19.3 µM | SF-295 29.9 µM | SNB-78 31.1 µM | CCRF-CEM 23.3 µM | TK-10 34.2 µM | SF-268 25.9 µM | NCI-H460 27.2 µM | NCI-H226 29 µM | OVCAR-8 33.4 µM | SK-MEL-28 28.4 µM | HCC 2998 29.5 µM | CAKI-1 20.4 µM | A498 26.6 µM

COc1ccc2c(c1)C(=O)N1CCOC1C2C(=O)O (stereo unspecified)
inactive: SF-539 > 100 µM | HOP-62 > 100 µM | NCI-H23 > 100 µM | SW-620 > 100 µM | M14 > 100 µM | SF-295 4.08 µM | SNB-78 > 100 µM | CCRF-CEM > 100 µM | TK-10 > 100 µM | SF-268 > 100 µM | SR > 100 µM | NCI-H460 > 100 µM | OVCAR-8 > 100 µM | SK-MEL-28 > 100 µM | HCC 2998 > 100 µM | CAKI-1 > 100 µM | A498 > 100 µM

CN(C)CCNC(=O)c1cccc2[nH]c(-c3cccnc3)nc12
inactive: SF-539 17.7 µM | HOP-62 18.5 µM | NCI-H23 18.8 µM | SW-620 12.9 µM | M14 20.9 µM | SF-295 30.5 µM | SNB-78 35 µM | CCRF-CEM 28.4 µM | TK-10 19.8 µM | SF-268 27.9 µM | NCI-H460 19.3 µM | NCI-H226 22.4 µM | OVCAR-8 17.5 µM | SK-MEL-28 31.7 µM | HCC 2998 17.1 µM | CAKI-1 27.6 µM | A498 14.2 µM

COc1cc(C[P+](c2ccccc2)(c2ccccc2)c2ccccc2)cc(OC)c1OC
inactive: SF-539 > 100 µM | HOP-62 > 100 µM | NCI-H23 > 100 µM | SW-620 > 100 µM | M14 > 100 µM | SF-295 > 100 µM | SNB-78 > 100 µM | CCRF-CEM > 100 µM | TK-10 > 100 µM | SF-268 > 100 µM | SR > 100 µM | NCI-H460 > 100 µM | NCI-H226 > 100 µM | OVCAR-8 > 100 µM | SK-MEL-28 > 100 µM | HCC 2998 > 100 µM | CAKI-1 > 100 µM

CCOC(=O)NC(=O)c1cn(CCN2CCN(C(=O)CNC(=O)CNC(=O)Cn3cc(C(=O)NC(=O)OCC)c(=O)[nH]c3=O)CC2)c(=O)[nH]c1=O
inactive: SF-539 > 100 µM | HOP-62 > 100 µM | NCI-H23 > 100 µM | SW-620 > 100 µM | M14 > 100 µM | SF-295 > 100 µM | SNB-78 > 100 µM | CCRF-CEM > 100 µM | TK-10 > 100 µM | SF-268 > 100 µM | SR > 100 µM | NCI-H460 > 100 µM | OVCAR-8 > 100 µM | SK-MEL-28 > 100 µM | HCC 2998 > 100 µM | CAKI-1 > 100 µM | A498 > 100 µM

Cn1c(=O)c2c(nc3n2CCC(=O)N3)n(C)c1=O
inactive: SF-539 > 100 µM | HOP-62 > 100 µM | NCI-H23 > 100 µM | SW-620 > 100 µM | SF-295 > 100 µM | SNB-78 > 100 µM | CCRF-CEM > 100 µM | TK-10 > 100 µM | SF-268 > 100 µM | SR > 100 µM | NCI-H460 > 100 µM | NCI-H226 > 100 µM | OVCAR-8 > 100 µM | SK-MEL-28 > 100 µM | CAKI-1 > 100 µM | A498 > 100 µM

Reference: ChEMBL document CHEMBL1201862, “PubChem BioAssay data set” (2004)
